Measured values: patent US20080226579A1, “Novel Resinate Complex of S-Clopidogrel and Production Method Thereof” (Chong Kun Dang Pharmaceutical Corp., priority 2005, published 2008)

Assay: Heat stability test (stress storage at 80° C., clopidogrel content by HPLC)
Type: physicochemical
Details: tightly closed container at 80° C., day 3, content of clopidogrel by HPLC
Method: Each of the (+)-clopidogrel isomer-resinate complex, so obtained from Examples 1, 2 and 8, including a solid form of (+)-clopidogrel optical isomer-Amberlite complex and (+)-clopidogrel isomer (free base), so obtained from Comparative examples 1 and 2, were put into a tightly closed container at 80° C. to determine the contents of clopidogrel in the baseline, day 1 and day 3 by HPLC analysis in accordance with a content uniformity test of the U.S. Pharmacopoeia.
(HPLC Analysis) • Column: ULTRON ES-OVM chiral 5 ? , 4.6×250 mm • Mobile phase: 0.01 M potassium dihydrogen phosphate solution/acetonitrile 75:25 • Flow rate: 1 mL/min • Column temperature: Room temperature • Detector: Ultraviolet absorption spectrophotometer (detection wavelength: 220 nm) • Injection volume: 10 ?

## COC(=O)[C@H](c1ccccc1Cl)N1CCc2sccc2C1 [(+)-clopidogrel isomer (free base), methyl(+)-(S)-(2-chlorophenyl)(6,7-dihydro-4H-thieno[3,2-c]pyridine-5-yl)acetate]
  decrease in content at day 3: 70%
